From patent US20230012368A1 (Hoffmann-La Roche Inc., priority 2018, published 2023)
Structures can show the parent of a compound that is named as a salt.

Each compound was assayed on Acinetobacter baumannii ATCC 17978 (assay: Antimicrobial susceptibility testing: 90% growth inhibitory concentration (IC90) determination). Details: 90% growth inhibitory concentration; Acinetobacter baumannii ATCC17978; Iso-Sensitest broth, OD 600 nm over 16h; read-out: ATCC17978 IC90.
Type: cell-based
Method in brief: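 Growth of the Acinetobacter baumannii strain was followed by optical density at 600 nm every 20 minutes for 16h at 35±2° C. Inoculum was ~5×10^(5) CFU/ml in Iso-Sensitest medium, with twofold compound dilutions (e.g. 50 to 0.097 μM final). The 90% inhibitory concentration was derived in log-phase growth.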

Row | Compound | IC90 [µM]
1 | COc1ccc(-c2cnc3c(Nc4ccc(C(=O)N(C)CC5CCOCC5)c(C)c4)nccn23)cc1F [Example 35, 4-[[3-(3-fluoro-4-methoxy-phenyl)imidazo[1,2-a]pyrazin-8-yl]amino]-N,2-dimethyl-N-(tetrahydropyran-4-ylmethyl)benzamide; 2,2,2-trifluoroacetic acid] | 1.2
2 | Cc1cc(Nc2nccn3c(-c4ccc(OCC#N)c(F)c4F)cnc23)ccc1C(=O)NCCNC(=O)[C@@H]1CCNC[C@@H]1O [Example 451, (3R,4R)-N-[2-[[4-[[3-[4-(cyanomethoxy)-2,3-difluoro-phenyl]imidazo[1,2-a]pyrazin-8-yl]amino]-2-methyl-benzoyl]amino]ethyl]-3-hydroxy-piperidine-4-carboxamide; formic acid] | 0.76

Same assay, conditions: Acinetobacter baumannii, ATCC17978, 16 h, 90% growth inhibitory concentration; Acinetobacter baumannii ATCC17978; Iso-Sensitest broth, OD 600 nm over 16h; read-out: ATCC17978 IC90

Row | Compound | IC90 [µM]
3 | COc1ccc(-c2cnc3c(Nc4ccc(C(=O)NCCNC(=O)N5CCN[C@H](C(=O)O)C5)c(C)c4)nccn23)c(F)c1F [Example 348, (2S)-4-[2-[[4-[[3-(2,3-difluoro-4-methoxyphenyl)imidazo[1,2-a]pyrazin-8-yl]amino]-2-methylbenzoyl]amino]ethyl-carbamoyl]piperazine-2-carboxylic acid;formic acid] | 1.1
4 | CCc1cc(Nc2nccn3c(-c4ccc(OC)c(F)c4F)cnc23)ccc1C(=O)NCCN1CCN(CCCC(=O)O)CC1 [Example 444, 4-(4-(2-(4-((3-(2,3-difluoro-4-methoxyphenyl)imidazo[1,2-a]pyrazin-8-yl)amino)-2-ethylbenzamido)ethyl)pipera-zin-1-yl)butanoic acid] | 0.32
5 | Cc1cc(Nc2nccn3c(-c4ccc(OC(F)F)cc4)cnc23)ccc1C(=O)NC(CO)CN1CCOCC1 (stereo not shown) [Example 251, 4-[[3-[4-(difluoromethoxy)phenyl]im-idazo[1,2-a]pyrazin-8-yl]amino]-N-(1-hydroxy-3-morpholin-4-ylpropan-2-yl)-2-methylbenzamide] | 2.7
6 | CCc1cc(Nc2nccn3c(-c4ccc(OC)c(F)c4F)cnc23)ccc1C(=O)N[C@H](C)C(=O)NCCNC [Example 566, 4-[[3-(2,3-difluoro-4-methoxy-phenyl)imidazo[1,2-a]pyrazin-8-yl]amino]-2-ethyl-N-[(1R)-1-methyl-2-[2-(methylamino)ethylamino]-2-oxo-ethyl]benzamide] | 0.95
7 | COc1ccc(-c2cnc3c(Nc4ccc(C(=O)NCCCN5CCNCC5=O)c(C)c4)nccn23)c(F)c1F [Example 69, 4-((3-(2,3-difluoro-4-methoxyphenyl)imidazo [1,2-a]pyrazin-8-yl)amino)-2-methyl-N-(3-(2-oxopiperazin-1-yl)propyl)benzamide] | 0.27
8 | COc1ccc(-c2cnc3c(Nc4ccc(C(=O)NCC5(O)CCNCC5)c(C)c4)nccn23)cc1F [Example 285, 4-[[3-(3-fluoro-4-methoxyphenyl)imidazo[1,2-a]pyrazin-8-yl]amino]-N-[(4-hydroxypiperidin-4-yl)methyl]-2-methylbenzamide;2,2,2-trifluoroacetic acid] | 2.6
9 | CCc1cc(Nc2nccn3c(-c4ccc(OC(F)F)c(F)c4F)cnc23)ccc1C(=O)NCCCCN [Example 94, N-(4-aminobutyl)-4-((3-(4-(difluoromethoxy)-2,3-difluorophenyl)imidazo [1,2-a]pyrazin-8-yl)amino)-2-ethylbenzamide hydrochloride] | 0.28
10 | CCc1cc(Nc2nccn3c(-c4ccc(Oc5ccc(OC)cn5)c(F)c4F)cnc23)ccc1C(=O)NCCNC(=O)CCN [Example 448, N-[2-(3-aminopropanoylamino)ethyl]-4-[[3-[2,3-difluoro-4-[(5-methoxy-2-pyridyl)oxy]phenyl]imidazo [1,2-a]pyrazin-8-yl]amino]-2-ethyl-benzamide; formic acid] | 0.47
11 | CCCc1cc(Nc2nccn3c(-c4ccc(OC(F)F)cc4)cnc23)ccc1C(=O)NC [Example 152, 4-((3-(4-(Difluoromethoxy)phenyl)imidazo[1,2-a]pyrazin-8-yl)amino)-N-methyl-2-propylbenzamide] | 1.1
12 | Cc1cc(Nc2nccn3c(-c4ccc(Cl)c(F)c4F)cnc23)ccc1C(=O)NCC1CCNCC1 [Example 253, 4-[[3-(4-chloro-2,3-difluorophenyl)imidazo[1,2-a]pyrazin-8-yl]amino]-2-methyl-N-(piperidin-4-ylmethyl)benzamide; hydrochlo-ride] | 2.9
13 | CCc1cc(Nc2nccn3c(-c4ccc(OC)c(F)c4F)cnc23)ccc1C(=O)NCC(C)(C)N [Example 524, N-(2-amino-2-methylpropyl)-4-((3-(2,3-difluoro-4-methoxyphenyl)imidazo[1,2-a]pyrazin-8-yl)amino)-2-ethylbenzamide hydrochloride] | 0.6
14 | Cc1cc(Nc2nccn3c(-c4ccc(Cl)c(F)c4F)cnc23)ccc1C(=O)NCC1CCN(C)CC1 [Example 240, 4-[[3-(4-chloro-2,3-difluorophenyl)imidazo[1,2-a]pyrazin-8-yl]amino]-2-methyl-N-[(1-methylpiperidin-4-yl)methyl]benzamide] | 1.1
15 | Cc1cc(Nc2nccn3c(-c4ccc(OC(F)F)cc4)cnc23)ccc1C(=O)NCCN [Example 266, N-(2-aminoethyl)-4-[[3-[4-(difluoromethoxy)phenyl]im-idazo[1,2-a]pyrazin-8-yl]amino]-2-methylbenzamide;hydrochlo-ride] | 5.1
16 | COc1ccc(-c2cnc3c(Nc4ccc(C(=O)N(C)CCCN)c(C)c4)nccn23)cc1 [Example 34, N-(3-aminopropyl)-4-((3-(4-methoxyphenyl)imidazo [1,2-a]pyrazin-8-yl)amino)-N,2-dimethylbenzamide hydrochloride] | 1.1
17 | Cc1cc(Nc2nccn3c(-c4ccc(OC(F)F)cc4)cnc23)ccc1C(=O)N(CCN1CCNCC1)C1CC1 [Example 284, N-cyclopropyl-4-[[3-[4-(difluoromethoxy)phenyl]im-idazo[1,2-a]pyrazin-8-yl]amino]-2-methyl-N-(2-piperazin-1-ylethyl)benzamide;hydrochlo-ride] | 2.1
18 | COc1ccc(-c2cnc3c(Nc4ccc(C(=O)NCCCN5CCNCC5)c(C)c4)nccn23)c(F)c1F [Example 67, 4-((3-(2,3-difluoro-4-methoxyphenyl)imidazo [1,2-a]pyrazin-8-yl)amino)-2-methyl-N-(3-(piperazin-1-yl)propyl)benzamide] | 0.12
19 | COc1ccc(-c2cnc3c(Nc4ccc(C(=O)N(C)C)cc4)nccn23)cc1 [Example 231, 4-[[3-(4-methoxyphenyl)imidazo[1,2-a]pyrazin-8-yl]amino]-N,N-dimethylbenzamide] | 0.4
20 | Cc1cc(Nc2nccn3c(-c4ccc(OCC#N)c(F)c4F)cnc23)ccc1C(=O)NC[C@@H](N)CNC(=O)[C@@H]1C[C@@H](O)CN1 [Example 473, (2S,4R)-N-[(2R)-2-amino-3-[[4-[[3-[4-(cyanomethoxy)-2,3-difluoro-phenyl]imidazo[1,2-a]pyrazin-8-yl]amino]-2-methyl-benzoyl]amino]propyl]-4-hydroxy-pyrrolidine-2-carboxamide; formic acid] | 0.21
21 | COc1ccc(-c2cnc3c(Nc4ccc(C(=O)N(C)CCC5CCNCC5)c(C)c4)nccn23)cc1 [Example 182, 4-[[3-(4-methoxyphenyl)imidazo[1,2-a]pyrazin-8-yl]amino]-N,2-dimethyl-N-(2-piperidin-4-ylethyl)benzamide; hydrochlo-ride] | 0.18
22 | CCc1cc(Nc2nccn3c(-c4ccc(OC(F)F)c(F)c4F)cnc23)ccc1C(=O)NCC1(O)CCNC1 (stereo not shown) [Example 311, 4-[[3-[4-(difluoromethoxy)-2,3-difluorophenyl]imidazo[1,2-a]pyrazin-8-yl]amino]-2-ethyl-N-[(3-hydroxypyrrolidin-3-yl)methyl]benzamide;hydro-chloride] | 0.8
23 | CCc1cc(Nc2nccn3c(-c4ccc(OC)c(F)c4F)cnc23)ccc1C(=O)NCCCNC(=O)CN [Example 103, N-(3-(2-aminoacetamido)propyl)-4-((3-(2,3-difluoro-4-methoxyphenyl)imidazo [1,2-a]pyrazin-8-yl)amino)-2-ethylbenzamide hydrochloride] | 0.08
24 | CCc1cc(Nc2nccn3c(-c4ccc(Oc5ncccn5)c(F)c4F)cnc23)ccc1C(=O)NCC1CCNCC1 [Example 548, 4-((3-(2,3-difluoro-4-(pyrimidin-2-yloxy)phenyl)imidazo[1,2-a]pyrazin-8-yl)amino)-2-ethyl-N-(piperidin-4-ylmethyl)benzamide formate] | 0.47
25 | CCc1cc(Nc2nccn3c(-c4ccc(OC)c(F)c4F)cnc23)ccc1C(=O)NC(C)(C)CNC(=O)[C@@H](N)CCCCN [Example 326, N-[1-[[(2S)-2,6-diaminohexanoyl]amino]-2-methylpropan-2-yl]-4-[[3-(2,3-difluoro-4-methoxyphenyl)imidazo[1,2-a]pyrazin-8-yl]amino]-2-ethylbenzamide] | 0.19
26 | C#CCCCNC(=O)c1ccc(Nc2nccn3c(-c4ccc(OC)c(F)c4F)cnc23)cc1CC [Example 481, 4-((3-(2,3-difluoro-4-methoxyphenyl)imidazo[1,2-a]pyrazin-8-yl)amino)-2-ethyl-N-(pent-4-yn-1-yl)benzamide] | 0.26
27 | CCc1cc(Nc2nccn3c(-c4ccc(OC(F)F)c(F)c4F)cnc23)ccc1C(=O)NCCCO[C@H]1O[C@H](CO)[C@@H](O)[C@H](O)[C@H]1O [Example 328, 4-[[3-[4-(difluoromethoxy)-2,3-difluorophenyl]imidazo[1,2-a]pyrazin-8-yl]amino]-2-ethyl-N-[3-[(2S,3R,4S,5S,6R)-3,4,5-trihydroxy-6-(hydroxymethyl)oxan-2-yl]oxypropyl]benzamide] | 0.3
28 | CCc1cc(Nc2nccn3c(-c4ccc(OC)c(F)c4F)cnc23)ccc1C(=O)NCC(O)CNC(=O)[C@@H](N)CCNC(=N)N (mixture of isomers) [Example 416, rac-N-(3-((R)-2-amino-4-guanidinobutanamido)-2-hydroxypropyl)-4-((3-(2,3-difluoro-4-methoxyphenyl)imidazo[1,2-a]pyrazin-8-yl)amino)-2-ethylbenzamide diformate] | 0.24
